In ChEMBL document CHEMBL3046609, “Herbicidal properties of the thaxtomin group of phytotoxins” (2001):
Calls of active or inactive are those of the source. The calls are words filed in the database; no cut-off is given here.

Legend:
[1] = system: Helianthus annuus; assay: Herbicidal activity against Helianthus annuus (sunflower) assessed as visual injury at 10 ug/seedling applied to meristem after 1 week relative to control; assay type: functional
[2] = system: Helianthus annuus; assay: Herbicidal activity against Helianthus annuus (sunflower) assessed as visual injury at 100 ug/seedling applied to meristem after 1 week relative to control; assay type: functional
[3] = system: Agrostis stolonifera var. palustris; assay: Herbicidal activity against Agrostis stolonifera var. palustris assessed as stunting after 9 days by agarose-based test; assay type: functional, organism-based
[4] = system: Helianthus annuus; assay: Herbicidal activity against Helianthus annuus (sunflower) assessed as visual injury at 1 ug/seedling applied to cotyledon after 1 week relative to control; assay type: functional
[5] = system: Helianthus annuus; assay: Herbicidal activity against Helianthus annuus (sunflower) assessed as visual injury at 10 ug/seedling applied to cotyledon after 1 week relative to control; assay type: functional
[6] = system: Helianthus annuus; assay: Herbicidal activity against Helianthus annuus (sunflower) assessed as visual injury at 100 ug/seedling applied to cotyledon after 1 week relative to control; assay type: functional
[7] = system: Helianthus annuus; assay: Herbicidal activity against Helianthus annuus (sunflower) assessed as visual injury at 1 ug/seedling applied to meristem after 1 week relative to control; assay type: functional
[8] = system: Abutilon theophrasti; assay: Herbicidal activity against Abutilon theophrasti (velvetleaf) assessed as visual injury at 1 ug/seedling applied to leaf after 1 week relative to control; assay type: functional
[9] = system: Abutilon theophrasti; assay: Herbicidal activity against Abutilon theophrasti (velvetleaf) assessed as visual injury at 10 ug/seedling applied to leaf after 1 week relative to control; assay type: functional
[10] = system: Abutilon theophrasti; assay: Herbicidal activity against Abutilon theophrasti (velvetleaf) assessed as visual injury at 100 ug/seedling applied to leaf after 1 week relative to control; assay type: functional
[11] = system: Abutilon theophrasti; assay: Herbicidal activity against Abutilon theophrasti (velvetleaf) assessed as visual injury at 1 ug/seedling applied to meristem after 1 week relative to control; assay type: functional
[12] = system: Abutilon theophrasti; assay: Herbicidal activity against Abutilon theophrasti (velvetleaf) assessed as visual injury at 10 ug/seedling applied to meristem after 1 week relative to control; assay type: functional
[13] = system: Abutilon theophrasti; assay: Herbicidal activity against Abutilon theophrasti (velvetleaf) assessed as visual injury at 100 ug/seedling applied to meristem after 1 week relative to control; assay type: functional
[14] = system: Arabidopsis thaliana; assay: Growth inhibition of Arabidopsis thaliana var. Columbia assessed as root tip puffing after 9 days by agarose-based test; assay type: functional, organism-based
[15] = system: Arabidopsis thaliana; assay: Growth inhibition of Arabidopsis thaliana var. Columbia assessed as stunting after 9 days by agarose-based test; assay type: functional, organism-based
[16] = system: Agrostis stolonifera var. palustris; assay: Herbicidal activity against Agrostis stolonifera var. palustris after 9 days by agarose-based test; assay type: functional
[17] = system: Arabidopsis thaliana; assay: Growth inhibition of Arabidopsis thaliana var. Columbia after 9 days by agarose-based test; assay type: functional
[18] = system: Agrostis stolonifera var. palustris; assay: Herbicidal activity against Agrostis stolonifera var. palustris assessed as root tip puffing after 9 days by agarose-based test; assay type: functional, organism-based
[19] = system: Avena fatua; assay: Post-emergence growth inhibition of Avena fatua assessed as visual injury at 0.25 kg/ha after 9 days relative to control; assay type: functional; parameters: scale not given: the % may be the effect or the level left
[20] = system: Avena fatua; assay: Post-emergence growth inhibition of Avena fatua assessed as visual injury at 0.5 kg/ha after 9 days relative to control; assay type: functional; parameters: scale not given: the % may be the effect or the level left
[21] = system: Avena fatua; assay: Post-emergence growth inhibition of Avena fatua assessed as visual injury at 1 kg/ha after 9 days relative to control; assay type: functional; parameters: scale not given: the % may be the effect or the level left
[22] = system: Avena fatua; assay: Post-emergence growth inhibition of Avena fatua assessed as visual injury at 2 kg/ha after 9 days relative to control; assay type: functional; parameters: scale not given: the % may be the effect or the level left
[23] = system: Echinochloa crus-galli; assay: Post-emergence herbicidal activity against Echinochloa crus-galli (barnyard grass) assessed as visual injury at 0.25 kg/ha after 9 days relative to control; assay type: functional
[24] = system: Echinochloa crus-galli; assay: Post-emergence herbicidal activity against Echinochloa crus-galli (barnyard grass) assessed as visual injury at 0.5 kg/ha after 9 days relative to control; assay type: functional
[25] = system: Echinochloa crus-galli; assay: Post-emergence herbicidal activity against Echinochloa crus-galli (barnyard grass) assessed as visual injury at 1 kg/ha after 9 days relative to control; assay type: functional
[26] = system: Echinochloa crus-galli; assay: Post-emergence herbicidal activity against Echinochloa crus-galli (barnyard grass) assessed as visual injury at 2 kg/ha after 9 days relative to control; assay type: functional
[27] = system: Ipomoea hederacea; assay: Post-emergence herbicidal activity against Ipomoea hederacea (ivy-leaved morning glory) assessed as visual injury at 0.25 kg/ha after 9 days relative to control; assay type: functional
[28] = system: Ipomoea hederacea; assay: Post-emergence herbicidal activity against Ipomoea hederacea (ivy-leaved morning glory) assessed as visual injury at 0.5 kg/ha after 9 days relative to control; assay type: functional
[29] = system: Ipomoea hederacea; assay: Post-emergence herbicidal activity against Ipomoea hederacea (ivy-leaved morning glory) assessed as visual injury at 1 kg/ha after 9 days relative to control; assay type: functional
[30] = system: Ipomoea hederacea; assay: Post-emergence herbicidal activity against Ipomoea hederacea (ivy-leaved morning glory) assessed as visual injury at 2 kg/ha after 9 days relative to control; assay type: functional
[31] = system: Helianthus annuus; assay: Post-emergence growth inhibition of Helianthus annuus (sunflower) assessed as visual injury at 0.25 kg/ha after 9 days relative to control; assay type: functional; parameters: scale not given: the % may be the effect or the level left
[32] = system: Helianthus annuus; assay: Post-emergence growth inhibition of Helianthus annuus (sunflower) assessed as visual injury at 0.5 kg/ha after 9 days relative to control; assay type: functional; parameters: scale not given: the % may be the effect or the level left
[33] = system: Helianthus annuus; assay: Post-emergence growth inhibition of Helianthus annuus (sunflower) assessed as visual injury at 1 kg/ha after 9 days relative to control; assay type: functional; parameters: scale not given: the % may be the effect or the level left
[34] = system: Helianthus annuus; assay: Post-emergence growth inhibition of Helianthus annuus (sunflower) assessed as visual injury at 2 kg/ha after 9 days relative to control; assay type: functional; parameters: scale not given: the % may be the effect or the level left
[35] = system: Ipomoea hederacea; assay: Post-emergence herbicidal activity against Ipomoea hederacea (ivy-leaved morning glory) after 9 days; assay type: functional
[36] = system: Avena fatua; assay: Post-emergence growth inhibition of Avena fatua assessed as visual injury at 0.125 kg/ha after 9 days relative to control; assay type: functional; parameters: scale not given: the % may be the effect or the level left
[37] = system: Echinochloa crus-galli; assay: Post-emergence herbicidal activity against Echinochloa crus-galli (barnyard grass) assessed as visual injury at 0.125 kg/ha after 9 days relative to control; assay type: functional
[38] = system: Ipomoea hederacea; assay: Post-emergence herbicidal activity against Ipomoea hederacea (ivy-leaved morning glory) assessed as visual injury at 0.125 kg/ha after 9 days relative to control; assay type: functional
[39] = system: Helianthus annuus; assay: Post-emergence growth inhibition of Helianthus annuus (sunflower) assessed as visual injury at 0.125 kg/ha after 9 days relative to control; assay type: functional; parameters: scale not given: the % may be the effect or the level left

## O=C1N[C@@H](Cc2c[nH]c3cccc([N+](=O)[O-])c23)C(=O)N[C@H]1Cc1ccccc1 [DES-N-METHYLTHAXTOMIN C]
[1]
  Activity: 0%
[2]
  Activity: 50%
[3]
  Activity: Active
[4]
  Activity: 0%
[5]
  Activity: 0%
[6]
  Activity: 0%
[7]
  Activity: 0%
[8]
  Activity: 0%
[9]
  Activity: 0%
[10]
  Activity: 0%
[11]
  Activity: 0%
[12]
  Activity: 0%
[13]
  Activity: 10%
[14]
  growth inhibition (GI): Active
[15]
  growth inhibition (GI): Active
[16]
  I50: 600 ppb
[17]
  I50: 400 ppb
[18]
  Activity: Active

## CN1C(=O)[C@](O)(Cc2ccc(O)c(O)c2)N(C)C(=O)[C@@H]1Cc1c[nH]c2cccc([N+](=O)[O-])c12 [HYDROXYTHAXTOMIN A]
[3]
  Activity: Active
[14]
  growth inhibition (GI): Active
[15]
  growth inhibition (GI): Active
[16]
  I50: 40 ppb
[17]
  I50: 10 ppb
[18]
  Activity: Active

## CN1C(=O)[C@](O)(Cc2ccccc2)NC(=O)[C@@H]1Cc1c[nH]c2cccc([N+](=O)[O-])c12 [HYDROXYTHAXTOMIN C]
[1]
  Activity: 95%
[2]
  Activity: 100%
[3]
  Activity: Active
[4]
  Activity: 0%
[5]
  Activity: 0%
[6]
  Activity: 20%
[7]
  Activity: 80%
[8]
  Activity: 0%
[9]
  Activity: 0%
[10]
  Activity: 0%
[11]
  Activity: 0%
[12]
  Activity: 20%
[13]
  Activity: 70%
[14]
  growth inhibition (GI): Active
[15]
  growth inhibition (GI): Active
[16]
  I50: <40 ppb
[17]
  I50: <40 ppb
[18]
  Activity: Active

## CN1C(=O)[C@](O)(Cc2ccccc2O)N(C)C(=O)[C@@H]1Cc1c[nH]c2cccc([N+](=O)[O-])c12 [THAXTOMIN A O-ISOMER]
[3]
  Activity: Active
[14]
  growth inhibition (GI): Active
[15]
  growth inhibition (GI): Active
[16]
  I50: 90 ppb
[17]
  I50: 100 ppb
[19]
  Activity: 0%
[20]
  Activity: 0%
[21]
  Activity: 0%
[22]
  Activity: 0%
[23]
  Activity: 0%
[24]
  Activity: 0%
[25]
  Activity: 0%
[26]
  Activity: 20%
[27]
  Activity: 0%
[28]
  Activity: 10%
[29]
  Activity: 40%
[30]
  Activity: 40%
[31]
  Activity: 0%
[32]
  Activity: 10%
[33]
  Activity: 75%
[34]
  Activity: 75%
[18]
  Activity: Active

## CN1C(=O)[C@](O)(Cc2ccc(O)cc2)N(C)C(=O)[C@@H]1Cc1c[nH]c2cccc([N+](=O)[O-])c12 [THAXTOMIN A P-ISOMER]
[3]
  Activity: Active
[14]
  growth inhibition (GI): Active
[15]
  growth inhibition (GI): Active
[16]
  I50: 100 ppb
[17]
  I50: 190 ppb
[18]
  Activity: Active

## CN1C(=O)[C@](O)(Cc2ccccc2)N(C)C(=O)[C@@H]1Cc1c[nH]c2cccc([N+](=O)[O-])c12 [THAXTOMIN B]
[3]
  Activity: Active
[14]
  growth inhibition (GI): Active
[15]
  growth inhibition (GI): Active
[17]
  I50: 28 ppb
[18]
  Activity: Active

## CN1C(=O)[C@H](Cc2ccccc2)NC(=O)[C@@H]1Cc1c[nH]c2cccc([N+](=O)[O-])c12 [THAXTOMIN C]
[1]
  Activity: 30%
[2]
  Activity: 75%
[35]
  GR50: <125 g/ha
[3]
  Activity: Active
[4]
  Activity: 0%
[5]
  Activity: 0%
[6]
  Activity: 0%
[7]
  Activity: 0%
[8]
  Activity: 0%
[9]
  Activity: 0%
[10]
  Activity: 0%
[11]
  Activity: 0%
[12]
  Activity: 0%
[13]
  Activity: 50%
[14]
  growth inhibition (GI): Active
[15]
  growth inhibition (GI): Active
[16]
  I50: 40 ppb
[17]
  I50: 50 ppb
[36]
  Activity: 0%
[19]
  Activity: 0%
[20]
  Activity: 0%
[21]
  Activity: 0%
[37]
  Activity: 0%
[23]
  Activity: 0%
[24]
  Activity: 20%
[25]
  Activity: 40%
[38]
  Activity: 70%
[27]
  Activity: 80%
[28]
  Activity: 80%
[29]
  Activity: 80%
[39]
  Activity: 30%
[31]
  Activity: 30%
[32]
  Activity: 30%
[33]
  Activity: 70%
[18]
  Activity: Active
